Data reported in patent US20150093333A1, “COMPOSITIONS, METHODS AND USES FOR PEPTIDES IN DIAGNOSIS, PROGRESSION AND TREATMENT OF CANCERS” (THE REGENTS OF THE UNIVERSITY OF COLORADO, body corporate, priority 2003, published 2015).
Read-outs that look alike come from different tables or passages of the source. Where no end group is shown, it is not given here. [ ]: non-standard residue; d: D form. Lys(N3) = [N-]=[N+]=NCCCC[C@H](N)C(=O)O; Pra = C#CC[C@H](N)C(=O)O

Experiments:
lipid vesicles [1] = experiment: 1H NMR of C2B derived peptides treated with lipid vesicles; type: binding
Protocol: To verify that the origin of the differential peptide interaction towards lipid vesicles is due to the innate property of the peptide itself and not due to the fluorophores, ^1H NMR spectrometry investigations to probe the interaction of C2B derived peptides were carried out.
This observation is in contrast to NMR profiles of peptides that are known to interact with liposomes.

[2] = tested on: 8:2 POPC/POPS lipid vesicles; experiment: Fluorescence enhancement assay of C2B derived peptides with lipid vesicles; type: binding; conditions: for lipid vesicle binding and curvature sensing (fluorescence enhancement): 8:2 POPC/POPS vesicles 0.03 to 0.08 μm
Protocol: In certain examples, lipid vesicles were prepared using extrusion through membranes with pore sizes of 30, 80, and 400 nm to cover a wide range of curvatures. […] A lipid film was deposited on a glass vial by blowing down to dryness with Ar or N2 a CHCl3 solution of the lipids (Avanti Polar Lipids), followed by the removal of residual organic solvent under vacuum for several hours. The lipid film was hydrated overnight at 4° C. in PBS pH 7.4, the lipid suspension of multilamellar vesicles were subjected to five freeze-thaw cycles (except for extrusion through 400 nm pores), and followed by extrusion through polycarbonate membranes with pore diameters of 30, 80, and 400 nm to produce the desired SUVs using […]. […] An increase in the observed fluorescence intensity and a blue shifted λem maximum are directly correlated to a change in the environment surrounding the peptide, e.g., from the polar aqueous solvent to the hydrophobic lipid vesicle, and indicate a peptide-lipid interaction. The peptides were prepared by microwave-assisted SPPS, purified by reversed phase HPLC, and characterized by MALDI-TOF-MS. […] An increase in the observed fluorescence intensity and a blue shifted λem maximum are directly correlated to a change in the environment surrounding the peptide, i.e., from the polar aqueous solvent to the hydrophobic lipid vesicle, indicating a peptide-lipid interaction. Lipid vesicles composed of 8:2 palmitoyl oleoyl phosphatidylcholine (POPC) and palmitoyl oleoyl phosphatidylserine (POPS) were used to represent the approximate phospholipid composition of cellular membranes. These vesicles were prepared by extruding a suspension of multilamellar lipid vesicles in PBS buffer (pH=7.4) through polycarbonate membranes. The diameters of these lipid vesicles were measured using dynamic light scattering (DLS) that was calibrated with 50 nm polystyrene beads. […] FIG. 2 illustrates exemplary fluorescence assays performed to assess the interaction of labeled-peptides on synthetic and biologically relevant lipid vesicles. […]

lipid vesicles [3] = conditions: cited from earlier work

## C2B-Cou 5: linear GGDYDKIGKNDA peptide N-terminally labeled with 7-hydroxycoumarin-3-carboxylic acid ({7‑hydroxycoumarin‑3‑carbonyl}-GGDYDKIGKNDA)
Lipid vesicles [1]; 0.03 μm vesicles
  interaction with liposomes (1H NMR peak intensity): are interacting with the lipid vesicles
[2]
  lipid vesicle binding and curvature sensing (fluorescence enhancement): significant binding and curvature sensing property

## C2BL3C 1: 12-residue cyclic peptide from Syt1 C2B loop 3, Click cyclization of GGPraDYDKIGKNDANle(ε-N3) (GG[Pra]DYDKIGKNDA[Lys(N3)]-NH2; triazole (positions not given here); numbers in words are those of the source; also: Pra after Gly2 and Nle(ε-N3) after Ala12 joined by click triazole (head-to-tail side-chain cyclisation))
Lipid vesicles [1]; vesicles with d=55±6 nm
  interaction with liposomes (1H NMR peak intensity): also interacts with liposomes

## C2B-Trp 4: linear GGDYDKIGKNDA peptide with N-terminal tryptophan (N-terminal tryptophan)
Lipid vesicles [1]; 0.03 μm vesicles
  interaction with liposomes (1H NMR peak intensity): are interacting with the lipid vesicles
[2]
  lipid vesicle binding and curvature sensing (fluorescence enhancement): significant binding and curvature sensing property

## Ac-GGDYDKIGKNDA-NH2 [C2B-Ac 3, linear 12-residue peptide derived from amino acids 363-372 of Syt1]
Lipid vesicles [1]; 0.03 μm vesicles
  interaction with liposomes (1H NMR peak intensity): does not interact with the liposomes
Lipid vesicles [1]; vesicles with d=55±6 nm
  interaction with liposomes (1H NMR peak intensity): weaker binding

B1: Syt1: Synaptotagmin-I, curvature-sensing protein used as positive control (protein, UniProt P21707 1-421, looked up)
Synaptotagmin-1: MVSASHPEALAAPVTTVATLVPHNATEPASPGEGKEDAFSKLKQKFMNELHKIPLPPWALIAIAIVAVLLVVTCCFCVCKKCLFKKKNKKKGKEKGGKNAINMKDVKDLGKTMKDQALKDDDAETGLTDGEEKEEPKEEEKLGKLQYSLDYDFQNNQLLVGIIQAAELPALDMGGTSDPYVKVFLLPDKKKKFETKVHRKTLNPVFNEQFTFKVPYSELGGKTLVMAVYDFDRFSKHDIIGEFKVPMNTVDFGHVTEEWRDLQSAEKEEQEKLGDICFSLRYVPTAGKLTVVILEAKNLKKMDVGGLSDPYVKIHLMQNGKRLKKKKTTIKKNTLNPYYNESFSFEVPFEQIQKVQVVVTVLDYDKIGKNDAIGKVFVGYNSTGAELRHWSDMLANPRRPIAQWHTLQVEEEVDAMLAVKK
Lipid vesicles [3]; 105 nm vesicles
  Kd: 151 µM
Lipid vesicles [3]; 252 nm vesicles
  Kd: 263 ± 180 µM
[2]; with 30 nm vesicles, FIG. 2a
  fluorescence enhancement: 1.28±0.02 RFU
